Bounds are passed on as bounds.

Data set [1] has as its system murine and human tumour xenografts. The settings on record: ref Li et al, 1992, cited from earlier work.
The nature of data set [2]: Plasma pharmacokinetics of Carzelesin and metabolites by HPLC, first course. It counts as in vivo, human. The method, then: Carzelesin is a cyclopropylpyrroloindole analogue which acts as a DNA-sequence-specific alkylating agent. In this phase I study, Carzelesin was given as a 4-weekly 10 min IV infusion to 51 patients with advanced solid tumours. Patients received a median of two courses (range 1–5) at one of nine dose levels: 24, 48, 96, 130, 150, 170, 210, 250 and 300 μg m^−2. According to NCI-CTC criteria, non-haematological toxicities (grade 1/2) included fever, nausea and vomiting, mucositis and anorexia, none of which was clearly dose related. The dose-limiting toxicity was haematological and consisted mainly of neutropenia and to a lesser extent thrombocytopenia. From the dose level 150 μg m^−2, the haematological toxicity (particularly thrombocytopenia) was delayed in onset, prolonged and cumulative in some patients. In several courses, double WBC nadirs occurred. The maximum tolerated dose for a single course was 300 μg m^−2. From the dose level 170 μg m^−2, the intended dose intensity could not be delivered to most patients receiving > 2 courses owing to cumulative haematological toxicity. The dose level with the best dose intensity for multiple courses was 150 μg m^−2. The pharmacokinetics of Carzelesin and its metabolites (U-76,073; U-76,074) have been established in 31 patients during the first course of treatment using a HPLC method. […] The concentration of U-76,074 (active metabolite) extended above the lower limit of quantitation (1 ng ml^−1) for short periods of time and only at the higher dose levels. There was no relationship between neutropenia and the AUC of the prodrug Carzelesin, but the presence of detectable plasma levels of the active metabolite U-76,074 was usually associated with a substantial decrease in ANC values. © 1999 Cancer Research Campaign
Carzelesin (U-80,244, Figure 1A) is a cyclopropylpyrroloindole (CPI) prodrug analogue of CC-1065. […] CPI drugs are a class of compounds with unique DNA interactive properties. These agents fit into the minor groove region of DNA, and the CPI function in the molecule mediates a covalent binding to the N3 position of adenine in A-T rich regions, thus forming DNA adducts in a sequence selective fashion (Hurley et al, 1984; Reynolds et al, 1985). Three new CPIs have now been developed. […] Bizelesin differs from the classical CPI drugs in that it contains two chloromethyl functions, which are both converted (via intramolecular rearrangements) to the CPI alkyl- ating species that interact with DNA. Consequently, this agent is capable of forming DNA interstrand cross-links (Lee et al, 1991). […] Therefore, efforts were directed to modu- late the alkylation rate by the preparation of CPI prodrugs that would require chemical or enzymatic conversion. The activation of Carzelesin is a two-step reaction with hydrolysis of the phenyl- urethane substituent to form the intermediate compound U-76,073, followed by ring closure to form the active product U-76,074 (Figure 1B). […] This higher efficacy may be related to the pharmacologic features of the compound. […] Phase I study of Carzelesin (U-80,244) given (4-weekly) by intravenous bolus schedule A Awada1, CJA Punt2, MJ Piccart1, O Van Tellingen3, L Van Manen2, J Kerger1, Y Groot4, J Wanders4, J Verweij5 and DJTh Wagener2 1Institut Jules Bordet, Bd de Waterloo 125, 1000 Brussels, Belgium; 2University Hospital, Geert Grooteplein 8, Box 9101, 6500 HB Nijmegen, The Netherlands; 3The Netherlands Cancer Institute (Antoni van Leeuwenhoek Huis), Plesmanlaan 121, 1066 CX Amsterdam, The Netherlands; 4European Organization for Research and Treatment of Cancer - New Drug Development Office, PO Box 7057, Amsterdam, The Netherlands; 5Rotterdam Cancer Institute, Groene Hilledijk 301, 3075 EA Rotterdam, The Netherlands; on behalf of the EORTC Early Clinical Studies Group and EORTC NDDO Summary Carzelesin is a cyclopropylpyrroloindole analogue which acts as a DNA-sequence-specific alkylating agent. […]

For `CCN(CC)c1ccc2cc(C(=O)Nc3ccc4[nH]c(C(=O)N5C[C@@H](CCl)c6c5cc(OC(=O)Nc5ccccc5)c5[nH]cc(C)c65)cc4c3)oc2c1` [Carzelesin], the “efficacy in a broad panel of murine and human tumour xenografts” value in data set [1] (compared with adozelesin) is recorded as “more efficacious”. For the same molecule, the “efficacy against Lewis lung carcinoma, B16 melanoma, colon 38 carcinoma, colon CX1 adenocarcinoma, lung LX-1 tumour, ovarian 2780 and prostatic DU-145 carcinoma” value in data set [1] (Houghton et al, 1995) is “highly effective”. In addition, the “time after drug administration until plasma level dropped below 1 ng ml-1” value in data set [2] (dose level 24) was not above 1 h. For the same molecule, in data set [2] (dose level 24, also reported in Van Tellingen et al, 1998), the peak plasma concentration entry is listed as “about 10 ng ml-1”. The “mean peak plasma level” value in data set [2] (highest dose level 300) is 63 ng/mL. Also, the “pharmacokinetic behaviour (dose vs plasma AUC)” value in data set [2] (in vivo) is recorded as “linear pharmacokinetics”.

The record behind these values is publication PMC2362731, “Phase I study of Carzelesin (U-80,244) given (4-weekly) by intravenous bolus schedule” (British Journal of Cancer, 1999).
